Patent US4906638A (priority 1987, dated 1990)
“Also recorded” adds a separate entry of the source. Like-named read-outs stand apart in the source and are kept apart here.

Legend:
[1] = system: N-methyl-D-aspartate-induced seizures; assay: N-methyl-D-aspartate (NMDA) induced convulsions in mice; format: in vivo, mice (male CF-1); conditions: for % Protected: 30 min before NMDA 250 mg/kg; for protection against N-methyl-D-asparate-induced seizures (in words): i.p.
Procedure: When mice (male CF-1; 25-30 g) are administered NMDA (250 mg/kg; IP) animals typically respond with seizure activity consisting of an initial staring, followed in rapid order by hindlimb scratching, increased locomotor activity, rearing behavior, clonic seizures, tonic extension and death.
All drugs were dissolved in saline (0.9%; w/v) and delivered by intraperitoneal injection in a volume of 1.0% (w/v) of body weight.

[2] = system: maximal electroshock induced seizures; assay: maximal electroshock (MES) induced seizures in mice (Example II); format: in vivo, mice (male CF-1); conditions: for % Protected: 30 min before testing
Procedure: All drugs were dissolved in saline (0.9%; w/v) and delivered intraperitoneally in a volume equal to 1 percent of body weight. Animals failing to show tonic hindlimb extension were scored as protected from MES-induced convulsions.

[3] = observed signs of toxicity in mice after ethosuximide; format: in vivo; conditions: 500 mg/kg i.p.
[4] = system: maximal electroshock seizures (tonic hindlimb extension); assay: maximal electroshock (MES) procedure for mice, transauricular (Example I); format: in vivo; conditions: for mice protected: 500 mg/kg i.p.
Procedure: For combination studies two separate injections were administered. […] The absence of tonic hindlimb extension was taken as evidence for seizure protection.

[5] = system: [^3 H]dextromethorphan receptor; conditions: cited from earlier work; for effect on [^3 H]dextromethorphan binding / binding to the dextromethorphan site (in words): central nervous system site; for IC50: read-out: IC50, inhibition of [^3 H]dextromethorphan binding, in vitro
[6] = rotorod-ataxia toxicity test (CNS side effects); conditions: mouse, in vivo
From the text: (§1) Mice that were unable to maintain equilibrium for one continuous minute, given 3 opportunities were scored as ataxic.

[7] = following 20 to 60 mg dextromethorphan p.o. in humans; cited from earlier work
[8] = system: transauricular maximal electroshock seizure (MES); conditions: cited from earlier work
[9] = system: calcium-induced spasms in smooth muscle; conditions: cited from earlier work
[10] = system: CNS side effects (rotorod ataxia); assay: rotorod-ataxia toxicity test (CNS side effects); conditions: maximal therapeutic dose of dextromethorphan
From the text: as §1

[11] = system: [^3 H]TCP-labeled-NMDA-linked receptor; conditions: cited from earlier work
[12] = rats, dogs and humans; cited from earlier work

In the case of O=C(O)C1CN(CCCP(=O)(O)O)CCN1 (centres unmarked) [CPP, 3-(2-carboxypiperazin-4-yl)propyl-1-phosphono acid], the “% Protected” value ([1]; CPP 1.5 mg/kg i.p. alone) is reported as 12.5%, the “% Protected” value ([1]; CPP 2.0 mg/kg i.p. alone) is reported as 37.5% and the “protection against N-methyl-D-asparate-induced seizures (in words)” value [1] is reported as “afforded protection”. For the same molecule, the “% Protected” value ([2]; CPP 5 mg/kg i.p. alone) was 25% and the “% Protected” value ([2]; CPP 10 mg/kg i.p. alone) was 60%.

For CCC1(C)CC(=O)NC1=O (centres unmarked) [Ethosuximide], the “signs of sedation, ataxia and gross toxicity” value [3] was “all mice injected showed signs of sedation, ataxia and gross toxicity”, the mice protected ([4]; at one half hour) was “one in five” and the mice protected ([4]; one hour after injection) was “none”.

In the case of CN1[C@@H]2CC[C@H]1C[C@@H](OC(c1ccccc1)c1ccccc1)C2 [benztropine], the “effect on [^3 H]dextromethorphan binding / binding to the dextromethorphan site (in words)” value [5] is given as “bind to the same central nervous system site”.

In the case of CCN(CC)CCOC(=O)C1(c2ccccc2)CCCC1 [caramiphen], the “effect on [^3 H]dextromethorphan binding / binding to the dextromethorphan site (in words)” value [5] is given as “bind to the same central nervous system site” and the IC50 [5] is given as 1 to 75 nM.

In the case of NC(=O)N1c2ccccc2C=Cc2ccccc21 [carbamazepine, 5-H-dibenzepin-(5)-carboxamide], the “effect on [^3 H]dextromethorphan binding / binding to the dextromethorphan site (in words)” value [5] is given as “did not inhibit or enhance; also recorded: do not inhibit or enhance binding”, the TD50 at […] [6] is given as 44.8 mg/kg and the “% Mice Protected” value ([4]; CBM 1 mg/kg alone, 15 min before MES) is given as 0%. For the same molecule, the “% Mice Protected” value ([4]; CBM 3 mg/kg alone, 15 min before MES) was 0%, the “% Mice Protected” value ([4]; CBM 6 mg/kg alone, 15 min before MES) was 25% and the “% Mice Protected” value ([4]; CBM 8 mg/kg alone, 15 min before MES) was 50%. For the same molecule, the “% Mice Protected” value ([4]; CBM 9 mg/kg alone, 15 min before MES) was 75%, the “% Mice Protected” value ([4]; CBM 12 mg/kg alone, 15 min before MES) was 100% and the “ED50” value ([4]; CBM alone, 15 min) was 7.2 mg/kg.

For CCN(CC)CCOCCOC(=O)C1(c2ccccc2)CCCC1 [carbetapentane], the “effect on [^3 H]dextromethorphan binding / binding to the dextromethorphan site (in words)” value [5] is listed as “bind to the same central nervous system site” and the IC50 [5] is listed as 1 to 75 nM.

In the case of CN(C)CCCN1c2ccccc2Sc2ccc(Cl)cc21 [chlorpromazine], the “effect on [^3 H]dextromethorphan binding / binding to the dextromethorphan site (in words)” value [5] is given as “bind to the same central nervous system site”.

In the case of C(=C\c1ccccc1)/CN1CCN(C(c2ccccc2)c2ccccc2)CC1 [cinnarizine], the “effect on [^3 H]dextromethorphan binding / binding to the dextromethorphan site (in words)” value [5] is given as “bind to the same central nervous system site”.

For c1ccc(C2(c3ccccc3)OC[C@H]([C@@H]3CCCCN3)O2)cc1 [dexoxadrol], the “effect on [^3 H]dextromethorphan binding / binding to the dextromethorphan site (in words)” value [5] is listed as “do not inhibit or enhance binding”.

In the case of COc1ccc2c(c1)[C@]13CCCC[C@@H]1[C@H](C2)N(C)CC3 [dextromethorphan], the Kd ([5]; read-out: Kd, high affinity binding of [^3 H]dextromethorphan, homogenates of guinea pig, rat and mouse lower brainstem) is given as under 20 nM, the absolute plasma levels [7] is given as “five” and the “protection against transauricular maximal electroshock seizure (in words)” value ([8]; 30 mg/kg, by itself) is given as “provide protection against transauricular maximal electroshock seizure (MES)”. For the same molecule, the “protection time against MES compared with dilantin (in words)” value ([8]; standard testing conditions) was “somewhat longer protection time against MES than that exhibited by dilantin”, the “% Protected” value ([1]; DM 10 mg/kg i.p. alone) was 33% and the “protection against N-methyl-D-asparate-induced seizures (in words)” value [1] was “afforded protection”. For the same molecule, the “block of calcium-induced spasms in smooth muscle (in words)” value [9] was “block calcium-induced spasms in smooth muscle”, the “% Protected” value ([2]; DM 6.6 mg/kg i.p. alone) was 0% and the “% Protected” value ([2]; DM 10 mg/kg i.p. alone) was 16.6%. For the same molecule, the “% Protected” value ([2]; DM 27 mg/kg i.p. alone) was 50%, the “% Protected” value ([2]; DM 30 mg/kg i.p. alone) was 66.6% and the “effect of dextromethorphan on anticonvulsant activity of CPP (in words)” value ([2]; low vs higher doses of dextromethorphan combined with CPP) was “readily apparent only when low doses of dextromethorphan were administered in combination with anticonvulsant doses of CPP; also recorded: higher doses of dextromethorphan were either ineffective to increase the anticonvulsant activity of CPP or, partially attenuated the activity”. For the same molecule, the “increment in carbamazepine's CNS side effects (in words)” value [10] was “little increment in carbamazepine's CNS side effects”, the “binding at phencyclidine-labeled/N-methyl-D-asparate linked receptors (in words)” value [11] was “bind at phencyclidine-labeled/N-methyl-D-asparate linked receptors” and the “% Mice Protected” value ([4]; 0 mg/kg CBM + 10 mg/kg DM (DM alone)) was 0%. For the same molecule, the “% Mice Protected” value ([4]; 0 mg/kg CBM + 20 mg/kg DM (DM alone)) was 8%, the “protection when administered alone (in words)” value ([4]; 10 and 20 mg/kg, with 0 CBM) was “little or no protection” and the “% Protected” value ([4]; DM 5 mg/kg i.p., one-half hour before MES) was 0%. The “% Protected” value ([4]; DM 10 mg/kg i.p., one-half hour before MES) was 0%, the “% Protected” value ([4]; DM 20 mg/kg i.p., one-half hour before MES) was 8% and the “% Protected” value ([4]; DM 25 mg/kg i.p., one-half hour before MES) was 25%. The “% Protected” value ([4]; DM 30 mg/kg i.p., one-half hour before MES) was 37.5%, the “% Protected” value ([4]; DM 35 mg/kg i.p., one-half hour before MES) was 75% and the “% Protected” value ([4]; DM 45 mg/kg i.p., one-half hour before MES) was 87.5%. For the same molecule, the “% Protected” value ([4]; DM 55 mg/kg i.p., one-half hour before MES) was 100%, the ED50 ([4]; Mus musculus, ip, 0.5 h, DM alone, i.p., one-half hour before MES, range in parentheses, read-out: ED50) was 29.2 mg/kg and the “anticonvulsant activity (in words)” value ([4]; alone, i.p., one-half hour before MES) was “dose dependent anticonvulsant activity”.

In the case of CN1CC[C@@]23CCCC[C@@H]2[C@@H]1Cc1ccc(O)cc13 [dextrorphan], the “ratio of dextrorphan to dextromethorphan in plasma and urine” value [12] is given as “exceeds 100 to 1”.

For CN1C(=O)CN=C(c2ccccc2)c2cc(Cl)ccc21 [diazepam], the “effect on [^3 H]dextromethorphan binding / binding to the dextromethorphan site (in words)” value [5] is given as “do not inhibit or enhance binding”.

In the case of CN(C)CCOCCOC(=O)N1c2ccccc2Sc2ccccc21 [dimethoxanate], the “effect on [^3 H]dextromethorphan binding / binding to the dextromethorphan site (in words)” value [5] is listed as “bind to the same central nervous system site” and the IC50 [5] is listed as 1 to 75 nM.

For OCCN1CCN(CC/C=C2/c3ccccc3Sc3ccc(C(F)(F)F)cc32)CC1 [flupenthinol], the “effect on [^3 H]dextromethorphan binding / binding to the dextromethorphan site (in words)” value [5] is given as “bind to the same central nervous system site”.

In the case of OCCN1CCN(CCCN2c3ccccc3Sc3ccc(C(F)(F)F)cc32)CC1 [fluphenazine], the “effect on [^3 H]dextromethorphan binding / binding to the dextromethorphan site (in words)” value [5] is given as “bind to the same central nervous system site”.

In the case of CNC1(c2ccccc2Cl)CCCCC1=O (centres unmarked) [ketamine], the “effect on [^3 H]dextromethorphan binding / binding to the dextromethorphan site (in words)” value [5] is given as “do not inhibit or enhance binding”.

In the case of COc1ccc2c(c1OC)C(=O)O[C@@H]2[C@H]1c2c(cc3c(c2OC)OCO3)CCN1C [noscapine], the “effect on [^3 H]dextromethorphan binding / binding to the dextromethorphan site (in words)” value [5] is listed as “markedly increased” and the “effect on [^3 H]dextromethorphan binding / binding to the dextromethorphan site (in words)” value ([5]; listed as roscapine) is listed as “bind to the same central nervous system site”.

For OCCN1CCN(CCCN2c3ccccc3C=Cc3ccccc32)CC1 [opipramol], the “effect on [^3 H]dextromethorphan binding / binding to the dextromethorphan site (in words)” value [5] is listed as “bind to the same central nervous system site”.

In the case of OCCN1CCN(CCCN2c3ccccc3Sc3ccc(Cl)cc32)CC1 [perphenazine], the “effect on [^3 H]dextromethorphan binding / binding to the dextromethorphan site (in words)” value [5] is listed as “bind to the same central nervous system site”.

For c1ccc(C2(N3CCCCC3)CCCCC2)cc1 [phencyclidine], the “effect on [^3 H]dextromethorphan binding / binding to the dextromethorphan site (in words)” value [5] is given as “do not inhibit or enhance binding”.

For CCC1(c2ccccc2)C(=O)NC(=O)NC1=O [phenobarbital], the “effect on [^3 H]dextromethorphan binding / binding to the dextromethorphan site (in words)” value [5] is listed as “do not inhibit or enhance binding”.

In the case of Nc1ccccc1 [phenylamine], the “effect on [^3 H]dextromethorphan binding / binding to the dextromethorphan site (in words)” value [5] is listed as “bind to the same central nervous system site”.

For O=C(OCCOCCN1CCCCC1)N1c2ccccc2Sc2cccnc21 [pipazethate], the “effect on [^3 H]dextromethorphan binding / binding to the dextromethorphan site (in words)” value [5] is given as “bind to the same central nervous system site”.

In the case of CN1CCN(CCCN2c3ccccc3Sc3ccc(Cl)cc32)CC1 [prochlorperazine], the “effect on [^3 H]dextromethorphan binding / binding to the dextromethorphan site (in words)” value [5] is listed as “bind to the same central nervous system site”.

For CC(CN1c2ccccc2Sc2ccccc21)N(C)C (centres unmarked) [promethazine], the “effect on [^3 H]dextromethorphan binding / binding to the dextromethorphan site (in words)” value [5] is listed as “bind to the same central nervous system site”.

For CN1CCN(CCCN2c3ccccc3Sc3ccc(C(F)(F)F)cc32)CC1 [trifluorperazine], the “effect on [^3 H]dextromethorphan binding / binding to the dextromethorphan site (in words)” value [5] is given as “bind to the same central nervous system site”.

In the case of CC(CN(C)C)CN1c2ccccc2Sc2ccccc21 (centres unmarked) [trimeprazine], the “effect on [^3 H]dextromethorphan binding / binding to the dextromethorphan site (in words)” value [5] is listed as “bind to the same central nervous system site”.
